Measurements taken from patent US20200368336A1, “METHOD FOR PREPARING PERSONALIZED CANCER VACCINE” (SHANGHAI JENOMED BIOTECH CO., LTD., priority 2017, published 2020).

System: mouse MHC molecule (MHC class I molecules)
Test: predicted affinity of short peptide chain to mouse MHC molecule (correlation analysis software)
Conditions: mutant vs wild-type
Experimental: The tumor neoantigen of mice were analyzed by the following methods: mouse H-2 typing software was used to classify mouse H-2 molecules, and using software such as Sentieon TNscope, the DNA exome sequencing sequence of the peripheral blood mononuclear cells of cancer-bearing mice was used as a control to isolate tumor neoantigen from the sequencing sequence of CTC DNA exome of cancer-bearing mice, and the correlation analysis software was used to predict the affinity of the short peptide chain tumor neoantigen and its corresponding wild-type short peptide chain to the mouse MHC molecule.

KAIRNVLII [preferred tumor neoantigen peptide screened from CTC of cancer-bearing mice]
affinity of neoantigen higher than that of corresponding wild-type short peptide chain: about 556 times
